Measured values taken from article PMC6225302, “Depsidone Derivatives and a Cyclopeptide Produced by Marine Fungus Aspergillus unguis under Chemical Induction and by Its Plasma Induced Mutant” (Molecules : A Journal of Synthetic Chemistry and Natural …, 2018).
≈ marks a conversion by molar mass, not a printed value. Where two headings read alike, the source gives them in different places. Where a SMILES comes first, the peptide text is derived from it. [ ]: non-standard residue; d: D form. GABA = NCCCC(=O)O

Legend:
[1] = test system: Vibrio parahemolyticus (ZouB); assay: microbe, parasite or virus in culture; format: cell-based
Description: (§1) Preliminary antimicrobial tests for compounds 1‒10 were carried out against pathogenetic strains, including Pseudomonas aeruginosa (ATCC 9027), methicillin-resistant Staphylococcus aureus (A7983, clinical isolate donated by Zhijun Yu in Dalian Friendship Hospital, Dalian, China), Vibrio parahemolyticus (ZouB, aquatic pathogen donated by Chongqing Wen in College of Fishery, Guangdong Ocean University, Zhanjiang, China), and Candida albicans (ATCC 10231) using the disc diffusion method. Muller Hinton agar (MHA) and Sabouraud agar (SA) were used for antibacterial and antifungal tests, respectively. For each sample, 10 μg was added onto paper disc (diameter of 6 mm) for tests. The minimum inhibition concentrations (MICs) of the compounds were tested using microdilution methods. Ampicillin and ketoconazole were taken as positive controls for antibacterial and antifungal tests, respectively. Solvents (MeOH and DMSO) were used as blank controls.

[2] = test system: methicillin-resistant Staphylococcus aureus (A7983, clinical isolate); assay: Antimicrobial paper disc diffusion method; format: cell-based; settings: MRSA; for zone of inhibition at 10 µg/disc: Staphylococcus aureus; for Zone of Inhibition: 10 μg per disc, paper disc diameter 6.0 mm, mean ± SD of three replicates
Description: as §1

[3] = test system: Vibrio parahemolyticus (ZouB); assay: Antimicrobial paper disc diffusion method; format: cell-based; settings: V. parahemolyticus, incomplete inhibition, 10 μg per disc, paper disc diameter 6.0 mm, mean ± SD of three replicates; for zone of inhibition at 10 µg/disc: Vibrio
Description: as §1

[4] = test system: Pseudomonas aeruginosa (ATCC 9027); assay: Antimicrobial paper disc diffusion method; format: cell-based; settings: P. aeruginosa, 10 μg per disc, paper disc diameter 6.0 mm, mean ± SD of three replicates; for zone of inhibition at 10 µg/disc: Pseudomonas aeruginosa, ATCC9027
Description: as §1

[5] = test system: Candida albicans (ATCC 10231); assay: Antimicrobial paper disc diffusion method; format: cell-based; settings: C. albicans, 10 μg per disc, paper disc diameter 6.0 mm, mean ± SD of three replicates; for zone of inhibition at 10 µg/disc: Candida albicans, ATCC10231
Description: as §1

[6] = test system: methicillin-resistant Staphylococcus aureus (A7983, clinical isolate); assay: Antimicrobial microdilution method (MIC); format: cell-based; settings: MRSA
Description: as §1

[7] = test system: Pseudomonas aeruginosa (ATCC 9027); assay: Antimicrobial microdilution method (MIC); format: cell-based; settings: ATCC9027, P. aeruginosa
Description: as §1

[8] = biological target: T1, Acetylcholinesterase (AChE, from electric eels) (Electrophorus electricus, UniProt O42275); assay: AChE inhibition assay (modified Ellman's method); format: biochemical; settings: AChE Inhibitory Activity (IC50), 0.2 U/mL, 37 °C
T1 construct: purchased Sigma-Aldrich
T1 sequence (O42275 24-633): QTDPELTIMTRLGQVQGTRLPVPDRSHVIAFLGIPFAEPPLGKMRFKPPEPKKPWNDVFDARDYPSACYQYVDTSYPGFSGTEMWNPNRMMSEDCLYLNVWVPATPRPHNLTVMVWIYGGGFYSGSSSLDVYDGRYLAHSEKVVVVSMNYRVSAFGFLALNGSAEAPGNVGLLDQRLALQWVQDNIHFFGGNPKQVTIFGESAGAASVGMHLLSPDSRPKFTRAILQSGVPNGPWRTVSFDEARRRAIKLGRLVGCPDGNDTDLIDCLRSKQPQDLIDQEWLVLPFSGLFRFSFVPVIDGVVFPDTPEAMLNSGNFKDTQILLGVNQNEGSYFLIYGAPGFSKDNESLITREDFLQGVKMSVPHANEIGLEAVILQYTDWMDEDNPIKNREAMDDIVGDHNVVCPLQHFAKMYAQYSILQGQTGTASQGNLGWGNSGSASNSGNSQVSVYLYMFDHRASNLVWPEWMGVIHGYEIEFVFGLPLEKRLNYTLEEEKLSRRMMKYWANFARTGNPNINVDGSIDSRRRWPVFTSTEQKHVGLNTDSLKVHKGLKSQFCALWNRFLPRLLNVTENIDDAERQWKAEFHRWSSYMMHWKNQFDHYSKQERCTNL
Description: Acetylcholinesterase (AChE, from electric eels), acetythiocholine iodide (ATCh), 5,5-dithiobis-(2-nitrobenzoic acid) (DTNB), and bovine serum albumin (BSA, A1933) were purchased from Sigma-Aldrich. 100 mM PBS (pH = 7.4) was prepared with K2HPO4 and KH2PO4. In vitro AChE inhibitory activity was measured in 96-well plates using modified Ellman’s methods. […] Each well contained 1 μL of prepared sample, 49 μL of PBS, 10 μL of enzyme with a final concentration of 0.2 U/mL in BSA ([…] in PBS), and 20 μL of DTNB (5 mM in PBS). Then, the plates were preincubated at 37 °C for 10 min. Afterwards, 20 μL of ATCh (10 mM in PBS) was added into the well. After incubation at 37 °C for 20 min, the 96-well plates were read at 405 nm on the microplate reader, and the inhibition ratios to AChE were calculated using the following equation, where Asample blank stands for the absorbance of a well without enzyme, Asample stands for the absorbance of the treatment, Acontorl stands for the absorbance of the well without the sample, and Ablank stands for the absorbance of the well without the sample and enzyme. Donepezil was taken as a positive control. Inhibition of AChE (%)=[(Acontrol−Ablank)−(Asample−Asample blank)]/(Acontrol−Ablank)×100%
The inhibition rates and concentration logarithm (lnC) values were imported into the Origin 8.0 software (OriginLab Co., Ltd., Northampton, MA, USA). The cubic polynomial regression equation was used to calculate ln(IC50). Then, IC50 was calculated using Microsoft Excel.

[9] = DPPH free radical scavenging assay; settings: 0.16 mM DPPH, 30 min in darkness at room temperature
Description: The free radical scavenging potentials of compounds 1‒10 were evaluated in 96-well plates using the DPPH free radical scavenging assay described by Sharma and Bhat. A total of 100 μL of the reaction mixture was composed of 50 μL of 0.16 mM DPPH (Sigma-Aldrich, St. Louis, MO, USA) in methanol and 50 μL of the test compound (in DMSO) with different concentrations (Asample). The reaction mixture was incubated for 30 min in darkness at room temperature. Meanwhile, 50 μL of 0.16 mM DPPH with 50 μL of DMSO was used as control (Acontrol), 50 μL of methanol and 50 μL of different concentrations of the test compound in DMSO were used as the sample blanks (Asample blank), 50 μL methanol with 50 μL DMSO was used as the blank (Ablank), while vitamin C was taken as a positive control. The absorbance was measured at 517 nm on the microplate reader. Scavenging capacity (%)=[(Acontrol−Ablank)−(Asample−Asample blank)]/(Acontrol−Ablank)×100%
The EC50 value is the concentration required to scavenge 50% of DPPH radicals. Likewise, the EC50 was calculated using Origin 8.0 plotting and cubic polynomial regression.

[10] = test system: Candida albicans (ATCC 10231); assay: Antimicrobial microdilution method (MIC); format: cell-based; settings: ATCC10231, C. albicans
Description: as §1

[11] = Brine shrimp larva lethality test; format: in vivo, Artemia salina; settings: 24 h at 28 °C, read-out: Larvicidal Activity (LC50)
Description: Compounds 1‒10 were evaluated for larvicidality using the brine shrimp (Artemia salina) larva lethality test. 0.15 g of frozen eggs of brine shrimp larva (purchased from Aijia Aquarium Co., Zhanjiang, China) were activated at room temperature for 12 h. After activation, eggs were added to 1 L of artificial seawater (3% sea salt), ventilated with air for 420 mL/min, then kept at a brightness at 1000 lux and incubated at 28 °C for 24 h. After incubation, the larvae were induced to the top of the separating funnel by phototaxis, and the dead ones on bottom were discharged. Then, in each well of the 96-well plate, 1 μL of test compounds (in DMSO) with different concentrations and 99 μL of seawater containing 20‒30 live larvae were added. After incubation under light at 28 °C for 24 h, recorded the numbers of dead larvae. Finally, 10 μL of the Lucus reagent were added into each well and the total number of brine shrimp larva in the well were counted. DMSO and Hg(NO3)2 were used as blank control and positive control, respectively. Lethality rate (%)=(lethality of treatment−lethality of blank control)/survival rate of blank control×100%
The brine shrimp larva LC50 value is the concentration required to kill 50% of the larvae. Likewise, the LC50 was calculated using Origin 8.0 plotting and cubic polynomial regression.

[12] = Artemia salina (brine shrimp) larvae, live brine shrimp larvae in 96-well plate, other: immersion in seawater containing the compound

Row | SMILES | MIC ([1]; Vibrio, V. parahemolyticus, microdilution method, read-out: MIC) [µM] | zone of inhibition at 10 µg/disc [2] [mm] | zone of inhibition at 10 µg/disc [3] [mm] | zone of inhibition at 10 µg/disc [4] [mm] | Zone of Inhibition [5] | MIC [6] [µM] | MIC [7] [µM] | IC50 [8] [µM] | EC50 [9] [µM] | MIC ([1]; Vibrio) [µM] | zone of inhibition at 10 µg/disc [5] [mm] | MIC [10] [µM] | LC50 at 24 h [11, 12] [µM] | Zone of Inhibition [2] | Zone of Inhibition [4] | Zone of Inhibition [3] | LC50 at 24 h ([11]; Artemia salina (brine shrimp) larvae, in vivo, other: compound added to the seawater holding the larvae) [µM] | MIC ([1]; V. parahemolyticus, microdilution method, read-out: MIC) [µM] | LC50 at 24 h ([11]; brine shrimp (Artemia salina), in vivo, brine shrimp larvae) [µM]
1 | CC1(C)S[C@@H]2[C@H](NC(=O)[C@H](N)c3ccccc3)C(=O)N2[C@H]1C(=O)O [Ampicillin, reference compound] | 102 (≈ 35.8 µg/mL) | 14 | 9 | 12 ± 1.4 | - | 6.4 (≈ 2.24 µg/mL) | 1.6 (≈ 0.559 µg/mL) |  |  |  |  |  |  |  |  |  |  |  | 
2 | C/C=C(\C)c1cc(OC(=O)c2c(C)cc(O)cc2O)c(C)c(O)c1C(=O)O [Compound 1, (E)-6-(but-2-en-2-yl)-4-((2,4-dihydroxy-6-methylbenzoyl)oxy)-2-hydroxy-3-methylbenzoic acid] |  | 12 ± 1 | 9.3 ± 0.6 | 7.7 ± 0.6 |  | 51.2 (≈ 19.1 µg/mL) | 102 (≈ 38.1 µg/mL) | > 102 | > 102 | > 102 | 8.3 ± 0.6 | 12.8 (≈ 4.77 µg/mL) | > 102 |  |  |  |  |  | 
3 | C/C=C(\C)c1cc(O)c(C)c(OC(=O)c2c(/C(C)=C/C)cc(O)c(C)c2O)c1 [Compound 2, agonodepside A] |  |  | 8 |  |  |  |  | > 102 | > 102 | > 102 | 6 ± 0.5 |  | > 102 | - | - |  |  |  | 
4 | CC=C(C)c1c(Cl)c(O)c(C)c2c1Oc1c(Cl)c(O)c(Cl)c(C)c1C(=O)O2 [Compound 3, nornidulin] |  |  |  | 12.2 ± 0.3 |  |  | > 102 | > 102 | > 102 |  | 12.1 ± 0.2 | > 102 |  | - |  | - | 12.8 |  | 
5 | CC=C(C)c1c(Cl)c(OC)c(C)c2c1Oc1c(Cl)c(O)c(Cl)c(C)c1C(=O)O2 [Compound 4, nidulin] |  | 9 |  | 9.5 ± 0.6 |  | 102 (≈ 45.4 µg/mL) | > 102 | > 102 | > 102 |  | 9 | > 102 | 4.5 |  |  | - |  |  | 
6 | CC=C(C)c1c(Br)c(O)c(C)c2c1Oc1c(Br)c(O)cc(C)c1C(=O)O2 [Compound 5, aspergillusidone F] |  | 14.5 ± 0.6 | 6.3 ± 0.6 | 11.9 ± 0.2 |  | 25.6 (≈ 12.4 µg/mL) | 6.4 (≈ 3.1 µg/mL) | > 102 | > 102 | > 102 | 7.5 ± 0.6 | > 102 | 12.8 |  |  |  |  |  | 
7 | C/C=C(\C)c1cc(O)c(C)c2c1Oc1cc(O)cc(C)c1C(=O)O2 [Compound 6, unguinol] |  | 7 | 7 | 8.7 ± 2.1 |  | > 102 | 102 (≈ 33.4 µg/mL) | > 102 | > 102 | > 102 | 8 ± 0.5 | > 102 | > 102 |  |  |  |  |  | 
8 | CC(C)[C@H]1NC(=O)[C@H](Cc2ccccc2)NC(=O)[C@@H](C(C)C)NC(=O)[C@@H](C)NC(=O)CCCNC(=O)[C@@H](Cc2c[nH]c3ccccc23)NC(=O)[C@@H](C)NC1=O [Compound 10, unguisin A] (cyclo(F[dV][dA][dW][GABA][dA][dV])) |  |  |  |  |  |  |  | > 102 |  |  |  |  |  |  |  |  |  | >102.4 | > 102
9 | CC(=O)N1CCN(c2ccc(OCC3COC(Cn4ccnc4)(c4ccc(Cl)cc4Cl)O3)cc2)CC1 (stereo not shown) [Ketoconazole, reference compound] |  |  |  |  |  |  |  |  |  |  | 22 | 1.9 (≈ 1.01 µg/mL) |  | - | - | - |  |  | 
10 | O=C1O[C@H]([C@@H](O)CO)C(O)=C1O [Vitamin C, vitamin C, reference compound] |  |  |  |  |  |  |  |  | 31.8 |  |  |  |  |  |  |  |  |  | 
